Results on five compounds are retold here after US20230382950A1 (priority 2020, published 2023).

The structures appear in SMILES notation. Like-named read-outs stand apart in the source and are kept apart here. *1 amine or outer side, *2 acyl side, *3 side chain or, on linkers, in order; H or OH if unused. Where a SMILES comes first, the peptide text is derived from it. Bridges are numbered along the chain shown (N, C = ends). [ ]: non-standard residue; d: D form. The star is where a group is joined. Ala(piperidin-4-yl) = O=C([C@H](CC1CCN([*:3])CC1)N[*:1])[*:2]; Malonyl(2,2-Me2,histaminyl) = CC(C)(C(=O)NCCc1cnc[nH]1)C(=O)*; dBip = N[C@H](Cc1ccc(-c2ccccc2)cc1)C(=O)O; Oic = O=C(O)[C@@H]1C[C@@H]2CCCC[C@@H]2N1; Phe(4-Br) = N[C@@H](Cc1ccc(Br)cc1)C(=O)O; hArg = N=C(N)NCCCC[C@H](N)C(=O)O; Pip = O=C(O)[C@@H]1CCCCN1; Nle = CCCC[C@H](N)C(=O)O

In assay [1] the target is T1, human Apelin receptor (Homo sapiens, UniProt P35414).
T1 sequence (P35414 1-380): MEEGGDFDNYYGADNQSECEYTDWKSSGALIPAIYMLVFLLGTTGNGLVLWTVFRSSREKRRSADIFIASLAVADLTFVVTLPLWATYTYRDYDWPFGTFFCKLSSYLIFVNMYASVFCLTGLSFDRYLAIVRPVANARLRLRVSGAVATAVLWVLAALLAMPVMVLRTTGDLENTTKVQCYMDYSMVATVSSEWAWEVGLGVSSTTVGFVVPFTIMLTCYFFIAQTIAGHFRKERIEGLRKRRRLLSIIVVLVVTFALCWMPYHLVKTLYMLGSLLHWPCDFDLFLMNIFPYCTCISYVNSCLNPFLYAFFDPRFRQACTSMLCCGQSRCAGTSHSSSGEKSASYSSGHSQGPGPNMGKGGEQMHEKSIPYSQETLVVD
Put plainly: cAMP accumulation assay (HTRF), functional agonism, CHO cells stably expressing the human Apelin receptor. Type of assay: cell-based. As to conditions: for Emax: CHO. An excerpt: cAMP functional assay. cAMP production was quantified using the Homogeneous Time-Resolved Fluorescence (HTRF) cAMP dynamic-2 assay (Cisbio, France).
A general note: Changes in cAMP serve as a functional read-out for many G protein-coupled receptors.

Assay [2] deals with T1, human Apelin receptor. Put plainly: β-arrestin accumulation assay, CHO-K1 cells overexpressing human Apelin receptor and β-arrestin (DiscoverRx). Further details: host or cells: CHO-K1 cells. Type of assay: cell-based. Here is the method: β-arrestin assay. […] After 16 h incubation at 37° C. media was removed and cells were incubated at 37° C. for 90 min in serum free media containing increasing concentrations of test agonist. The assay reaction was stopped by adding detection reagent (DiscoveRx) and incubation for 60 min in the dark. Levels of receptor activation were then measured on a PheraStar fluorescence plate reader (BMG LabTech) and EC50 values were determined using Graphpad Prism.

Usually Emax stands for the maximal effect, on the per cent scale that the assay sets.

In assay [1], `CC(C)C[C@H](NC(=O)[C@@H](CCCNC(=N)N)NC(=O)[C@@H]1CCCCN1C(=O)[C@H](CCCCNC(=N)N)NC(=O)[C@H](CCC(N)=O)NC(=O)[C@@H](CCCNC(=N)N)NC(=O)C(C)(C)C(=O)NCCc1c[nH]cn1)C(=O)N[C@H]1CCC(=O)NCCCC[C@@H](C(=O)N2[C@H](C(=O)N[C@@H](Cc3ccc(Br)cc3)C(=O)N3CCC[C@H]3C(=O)N[C@H](Cc3ccc(-c4ccccc4)cc3)C(=O)O)C[C@@H]3CCCC[C@@H]32)NC(=O)[C@H](CC2CCNCC2)NC(=O)[C@H](Cc2c[nH]cn2)NC1=O` [Example 1] ({Malonyl(2,2-Me2,histaminyl)}-[dR]Q[hArg][Pip][dR]LEH[Ala(piperidin-4-yl)]K[Oic][Phe(4-Br)]P[dBip]-OH; lactam 7-10) had an EC50 of 3.16 nM and an Emax of 70.5%. Also, in assay [2], the EC50 is > 10000 nM.
Take `CCCC[C@H](NC(=O)[C@@H]1C[C@@H]2CCCC[C@@H]2N1C(=O)[C@@H]1CCCCNC(=O)CC[C@H](NC(=O)[C@H](CC(C)C)NC(=O)[C@@H](CCCNC(=N)N)NC(=O)[C@@H]2CCCCN2C(=O)[C@H](CCCCNC(=N)N)NC(=O)[C@H](CCC(N)=O)NC(=O)[C@@H](CCCNC(=N)N)NC(=O)C(C)(C)C(=O)NCCc2c[nH]cn2)C(=O)N[C@@H](Cc2c[nH]cn2)C(=O)N[C@@H](CC2CCNCC2)C(=O)N1)C(=O)N1CCC[C@H]1C(=O)N[C@H](Cc1ccc(-c2ccccc2)cc1)C(=O)O` [Example 2] ({Malonyl(2,2-Me2,histaminyl)}-[dR]Q[hArg][Pip][dR]LEH[Ala(piperidin-4-yl)]K[Oic][Nle]P[dBip]-OH; lactam 7-10): the EC50 is 15.8 nM in assay [1] and > 10000 nM in assay [2]. The Emax in assay [1] was found to be 31.2%.
`CCCC[C@H](NC(=O)[C@@H]1C[C@@H]2CCCC[C@@H]2N1C(=O)[C@@H]1CCCCNC(=O)CC[C@H](NC(=O)[C@H](CC(C)C)NC(=O)[C@@H](CCCNC(=N)N)NC(=O)[C@@H]2CCCCN2C(=O)[C@H](CCCCNC(=N)N)NC(=O)[C@H](CCC(N)=O)NC(=O)[C@@H](CCCNC(=N)N)NC(=O)C(C)(C)C(=O)NCCc2c[nH]cn2)C(=O)N[C@@H](Cc2ccc(Br)cc2)C(=O)N[C@@H](CC2CCNCC2)C(=O)N1)C(=O)N1CCC[C@H]1C(=O)N[C@H](Cc1ccc(-c2ccccc2)cc1)C(=O)O` [Example 4] ({Malonyl(2,2-Me2,histaminyl)}-[dR]Q[hArg][Pip][dR]LE[Phe(4-Br)][Ala(piperidin-4-yl)]K[Oic][Nle]P[dBip]-OH; lactam 7-10): the Emax in assay [1] (read-out: Emax) is 28.4%. Besides, the EC50 was 100 nM in assay [1] (read-out: pEC50 (converted)) and > 10000 nM in assay [2] (read-out: pEC50 (converted)).
Taken in the same sequence, the figures for `CC(C)C[C@H](NC(=O)[C@@H](CCCNC(=N)N)NC(=O)[C@@H]1CCCCN1C(=O)[C@H](CCCCNC(=N)N)NC(=O)[C@H](CCC(N)=O)NC(=O)C(C)(C)C(=O)NCCc1c[nH]cn1)C(=O)N[C@H]1CCC(=O)NCCCC[C@@H](C(=O)N2[C@H](C(=O)N[C@@H](Cc3ccc(Br)cc3)C(=O)N3CCC[C@H]3C(=O)N[C@H](Cc3ccc(-c4ccccc4)cc3)C(=O)O)C[C@@H]3CCCC[C@@H]32)NC(=O)[C@H](CC2CCNCC2)NC(=O)[C@H](Cc2c[nH]cn2)NC1=O` [Example 5] ({Malonyl(2,2-Me2,histaminyl)}-Q[hArg][Pip][dR]LEH[Ala(piperidin-4-yl)]K[Oic][Phe(4-Br)]P[dBip]-OH; lactam 6-9) were 48.2%, 5.01 nM and > 10000 nM.
As to `CC(C)C[C@@H]1NC(=O)[C@@H](CCCNC(=N)N)NC(=O)[C@@H](NC(=O)[C@H](CCCCNC(=N)N)NC(=O)[C@H](CCC(N)=O)NC(=O)C(C)(C)C(=O)NCCc2c[nH]cn2)CC(=O)NCCCC[C@@H](C(=O)N[C@@H](CC2CCNCC2)C(=O)NCC(=O)N2[C@H](C(=O)N[C@@H](Cc3ccc(Br)cc3)C(=O)N3CCC[C@H]3C(=O)N[C@H](Cc3ccc(-c4ccccc4)cc3)C(=O)O)C[C@@H]3CCCC[C@@H]32)NC(=O)CNC1=O` [Example 6] ({Malonyl(2,2-Me2,histaminyl)}-Q[hArg]D[dR]LGK[Ala(piperidin-4-yl)]G[Oic][Phe(4-Br)]P[dBip]-OH; lactam 3-7), the EC50 in assay [1] is 12.6 nM; in assay [2], > 100000 nM. The compound also had an Emax in assay [1] of 30.5%.
